Test results published in patent US9926319B2, “Pyridyl piperidines” (MERCK PATENT GMBH, priority 2014, dated 2018).

Assays:
[1] = CLint (intrinsic clearance) assay, microsomal incubation; type: in vitro ADME, Human; conditions: human, liver microsomes, pH 7.4, human liver microsomes 0.5 mg/mL protein, NADPH, 37° C., up to 30 min
In short: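 Test compound at 0.8 μM was incubated at 37 °C with liver microsomes at 0.5 mg/mL protein in 0.1 M potassium phosphate pH 7.4 with 1 mM MgCl2, NADPH-started, with no-cofactor controls. Acetonitrile quench at 0, 5, 10, 20 and 30 min, then LC-MS/MS peak-area decline. CLint (μL/min/mg protein) = k·1000/protein concentration.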

[2] = system: Wnt pathway; assay: Cellular assay for Wnt pathway activity (luciferase reporter cell based assay); conditions: 24 h, HEK293 luciferase reporter cell line (ER-DSH, TCF dependent promoter), induced with estrogen (1 μM), read-out: 7df3 IC50

CN1c2ccc(-c3cncc(Cl)c3N3CCC4(CC3)CC(=O)NC4=O)cc2CS1(=O)=O [Example 87, 8-[3-Chloro-5-(1-methyl-2,2-dioxo-2,3-dihydro-1H-2l6-benzo[c]isothiazol-5-yl)-pyridin-4-yl]-2,8-diaza-spiro[4.5]decane-1,3-dione]
microsomal CLint at 0.8 μM [1]: 13 µL/min/mg | IC50 [2]: 0.16 nM

Cn1cc(-c2ccc(-c3cncc(Cl)c3N3CCC4(CC3)NCNC4=O)cc2)cn1 [Example 88, 8-{3-Chloro-5-[4-(1-methyl-1H-pyrazol-4-yl)-phenyl]-pyridin-4-yl}-1,3,8-triaza-spiro[4.5]decan-4-one]
microsomal CLint at 0.8 μM [1]: < 10 µL/min/mg | IC50 [2]: 3.2 nM

Cn1cc(-c2ccc(-c3cncc(Cl)c3N3CCC4(CCNC4=O)CC3)cc2)cn1 [Example 89, 8-{3-Chloro-5-[4-(1-methyl-1H-pyrazol-4-yl)-phenyl]-pyridin-4-yl}-2,8-diaza-spiro[4.5]decan-1-one]
microsomal CLint at 0.8 μM [1]: 83 µL/min/mg | IC50 [2]: 6.2 nM

O=C1CC2(CCN(c3c(Cl)cncc3-c3ccc(N4CCOCC4)cc3)CC2)C(=O)N1 [Example 90, 8-[3-Chloro-5-(4-morpholin-4-yl-phenyl)-pyridin-4-yl]-2,8-diaza-spiro[4.5]decane-1,3-dione]
microsomal CLint at 0.8 μM [1]: 66 µL/min/mg | IC50 [2]: 8.8 nM

Cn1cc2cc(-c3cncc(Cl)c3N3CCC4(CCNC4=O)CC3)ccc2n1 [Example 92, 8-[3-Chloro-5-(2-methyl-2H-indazol-5-yl)-pyridin-4-yl]-2,8-diaza-spiro[4.5]decan-1-one]
microsomal CLint at 0.8 μM [1]: 33 µL/min/mg | IC50 [2]: 14 nM

O=C1CCc2cc(-c3cncc(Cl)c3N3CCC4(CCNC4=O)CC3)cnc2N1 [Example 93, 6-[5-Chloro-4-(1-oxo-2,8-diaza-spiro[4.5]dec-8-yl)-pyridin-3-yl]-3,4-dihydro-1H-[1,8]naphthyridin-2-one]
microsomal CLint at 0.8 μM [1]: 48 µL/min/mg | IC50 [2]: 34 nM

CC(C)n1cc2cc(-c3cncc(Cl)c3N3CCC4(CC3)CNC(=O)O4)ccc2n1 [Example 94, 8-[3-Chloro-5-(2-isopropyl-2H-indazol-5-yl)-pyridin-4-yl]-1-oxa-3,8-diaza-spiro[4.5]decan-2-one]
microsomal CLint at 0.8 μM [1]: < 10 µL/min/mg | IC50 [2]: 28 nM

CCn1cc2cc(-c3cncc(Cl)c3N3CCC4(CC3)CNC(=O)O4)ccc2n1 [Example 95, 8-[3-Chloro-5-(2-ethyl-2H-indazol-5-yl)-pyridin-4-yl]-1-oxa-3,8-diaza-spiro[4.5]decan-2-one]
microsomal CLint at 0.8 μM [1]: < 10 µL/min/mg | IC50 [2]: 4.5 nM

C[C@@H]1NC(=O)OC12CCN(c1c(Cl)cncc1-c1ccc3c(c1)CS(=O)(=O)N3C)CC2 [Example 98, (S)-8-[3-Chloro-5-(1-methyl-2,2-dioxo-2,3-dihydro-1H-2l6-benzo[c]isothiazol-5-yl)-pyridin-4-yl]-4-methyl-1-oxa-3,8-diaza-spiro[4.5]decan-2-one]
microsomal CLint at 0.8 μM [1]: 35 µL/min/mg | IC50 [2]: 4.3 nM

C[C@H]1NC(=O)OC12CCN(c1c(Cl)cncc1-c1ccc3c(c1)CS(=O)(=O)N3C)CC2 [Example 99, (R)-8-[3-Chloro-5-(1-methyl-2,2-dioxo-2,3-dihydro-1H-2l6-benzo[c]isothiazol-5-yl)-pyridin-4-yl]-4-methyl-1-oxa-3,8-diaza-spiro[4.5]decan-2-one]
microsomal CLint at 0.8 μM [1]: 39 µL/min/mg | IC50 [2]: 5.2 nM

C[C@H]1NC(=O)OC12CCN(c1c(Cl)cncc1-c1ccc(-c3cnn(C)c3)cc1)CC2 [Example 100, (R)-8-{3-Chloro-5-[4-(1-methyl-1H-pyrazol-4-yl)-phenyl]-pyridin-4-yl}-4-methyl-1-oxa-3,8-diaza-spiro[4.5]decan-2-one]
microsomal CLint at 0.8 μM [1]: 31 µL/min/mg | IC50 [2]: 37 nM
